Reference: patent US20230133132A1, “NAMPT MODULATORS” (Cytokinetics, Inc., priority 2020, published 2023)

Assays:
human NAMPT = human NAMPT (Homo sapiens, UniProt P43490); experiment: Human recombinant enzyme assay (NMN fluorescence biochemical assay)
Method: Compounds described herein were assayed for their ability to stimulate the synthesis of nicotinamide mononucleotide (NMN) by the enzyme NAMPT. The human recombinant enzyme assay measures the activation of the enzyme activity by compounds using recombinant enzyme and substrates in a buffered cell-free system. The assay conditions closely mimic cellular environments. Dose responses were measured using an assay to detect the formation of nicotinamide mono-nucleotide. All experiments were performed in the 384-well format. Generally, 0.5 μL of DMSO containing varying concentrations of the test compound was mixed with 10 μL of the enzyme reagent solution. Enzyme reactions were initiated with the addition of 10 μL of a solution containing the substrates. The final assay conditions were as follows: 6 nM human NAMPT, 2.5 mM ATP, 20 μM PRPP and 150 μM nicotinamide in 50 mM HEPES, pH 7.2, 1 mM DTT, 1 mM CHAPS 50 mM NaCl, 100 mM MgCl2. Following an incubation of 60 min at ambient temperature, 10 μL of 20% acetophenone in DMSO was added, followed by 10 μL of 2 M KOH and 40 μL of formic acid. The plates were read for fluorescence (Excitation/Emission=355 nm/460 nm) using an EnVision plate reader after 40 mins of incubation at ambient temperature.

endogenous NAMPT = biological target: T1, endogenous NAMPT (Homo sapiens, UniProt P43490); experiment: Cellular NAD+ modulation assay in SH-SY5Y cells; type: cell-based; details: 40 hours
T1 construct: stimulate the endogenous NAMPT in a native cellular environment; endogenous in cells; host or cells: SH-SY5Y neuroblastoma cells
T1 sequence (P43490 whole entry): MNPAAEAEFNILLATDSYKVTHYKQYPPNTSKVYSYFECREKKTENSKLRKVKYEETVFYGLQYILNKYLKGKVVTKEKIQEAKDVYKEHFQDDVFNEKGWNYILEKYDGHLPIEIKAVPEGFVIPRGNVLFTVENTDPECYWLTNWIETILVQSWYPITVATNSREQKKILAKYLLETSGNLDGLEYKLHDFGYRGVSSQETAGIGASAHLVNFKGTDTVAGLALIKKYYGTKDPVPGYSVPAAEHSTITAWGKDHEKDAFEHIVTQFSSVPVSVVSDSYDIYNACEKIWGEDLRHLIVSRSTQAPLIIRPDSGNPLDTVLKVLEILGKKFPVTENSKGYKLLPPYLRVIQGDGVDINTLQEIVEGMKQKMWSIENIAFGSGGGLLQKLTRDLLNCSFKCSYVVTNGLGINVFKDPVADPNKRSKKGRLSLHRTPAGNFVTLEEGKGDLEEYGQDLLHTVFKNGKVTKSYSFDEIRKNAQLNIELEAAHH
Method: The compounds described herein were also assayed for their ability to stimulate the endogenous NAMPT in a native cellular environment in the cellular NAD+ modulation assay, which measures the ability of the compound to modulate cellular NAD levels. Increased levels of NAD are expected by compounds that permeate the cells and activate the catalytic activity of the endogenous NAMPT.
Neuroblastoma SH-SY5Y cells were grown in 1:1 mixture of Eagle's Minimum Essential Medium and F12 Medium, along with 10% fetal bovine serum, in a humidified incubator with an atmosphere of 95% air and 5% C02 at 37° C. The assays were initiated by plating 20 μL of SH-SY5Y cells in culture medium with 0.1% fetal bovine serum, at a density of 5000 cells per well to a 384-well Corning™ BioCoat™ Poly-D-Lysine Multiwell Plates. The plates were incubated in the 37° C. incubators for a period of 5 hours. Compounds in DMSO were added to the plates in a volume of 120 nL using the Labcyte Echo Liquid Handlers. 5 μL of a 1.5 uM Doxorubicin solution in assay medium is added to each well. The plates are then incubated for 40 hours. 30 μL of a readout-solution containing 0.2 U/mL Diaphorase enzyme, 40 uM resazurin, 10 uM FMN, 0.8 U/mL Alcohol dehydrogenase, 3% ethanol, 0.4 mg/mL bovine serum albumin, 0.2% Triton X-100 in 100 mM Tris-HCl, 30 mM EDTA, pH 8.4. The plates were read for fluorescence (Excitation/Emission=540 nm/590 nm) using an EnVision plate reader after 60 mins of incubation at ambient temperature.

[1] = recombinant human NAMPT, NMN fluorescence, 60 min
[2] = 6 nM human NAMPT, 60 min, NMN formation by fluorescence
[3] = doxorubicin added, cellular NAD readout

Chain of human NAMPT (P43490 whole entry): as above

Question: CC(C)(O)CN1CCN(Cc2ccc(NC(=O)NCc3cn[nH]c3)cc2)CC1 [Comparator C, reference compound] was tested. Which EC50 (human NAMPT; [1]) did it give?
Answer: Its EC50 is 35.1 µM.

Question: What about the EC50 (endogenous NAMPT; doxorubicin) of the same compound?
Answer: Its EC50 is greater than 20.1 µM.

Question: Which EC50 (human NAMPT; [1]) does the source give for CC(C)(O)CN1CCN(Cc2ccc(NC(=O)NCc3cnco3)cc2)CC1 [Comparator D, reference compound] here?
Answer: Its EC50 is 36.5 µM.

Question: What about the EC50 (endogenous NAMPT; doxorubicin) of the same compound?
Answer: Its EC50 is greater than 20.1 µM.

Question: What does the source list for CC(C)(O)CN1CCN(Cc2ccc(NC(=O)NCc3ccccc3)cc2)CC1 [Comparator A, reference compound]?
Answer: potency relative to compounds with a halo or methoxy substituent at the R^1 position, as measured by AC1.4 (human NAMPT; comparison of AC1.4 values): five to ten times less potent; EC50 (human NAMPT; [1]): 10.6 µM; EC50 (endogenous NAMPT; doxorubicin): 2.3 µM

Question: How did the “AC1.4 (the concentration of compounds that generates 40% higher activity over basal)” value (human NAMPT; [2]) turn out when CC(C)(O)CN1CCN(Cc2ccc(NC(=O)NCc3ccc(F)cc3)cc2)CC1 [Compound 167, {[(4-fluorophenyl)methyl]amino}-N-(4-{[4-(2-hydroxy-2-methylpropyl)piperazinyl]methyl}phenyl)carboxamide] was run?
Answer: The value was 0.78 µM.

Question: And the AC1.4 designation (human NAMPT; [2])?
Answer: The AC1.4 designation was “B (AC1.4 values that are between 0.5 μM and 2.5 μM)”.

Question: What about the EC50 (human NAMPT; [1]) of the same compound?
Answer: The EC50 was 7.5 µM.

Question: What about the AC0.3 (endogenous NAMPT; [3]) of the same compound?
Answer: The AC0.3 was 1.2 µM.

Question: And the EC50 (endogenous NAMPT; doxorubicin)?
Answer: Its EC50 is 1.4 µM.

Question: With CC(C)(O)CN1CCN(Cc2ccc(NC(=O)NCc3ccncc3)cc2)CC1 [Comparator B, reference compound] as the compound, how does the EC50 (human NAMPT; [1]) read?
Answer: Its EC50 is 19.7 µM.

Question: What about the EC50 (endogenous NAMPT; doxorubicin) of the same compound?
Answer: Its EC50 is greater than 20.1 µM.

Question: Which results are given for CC(C)(O)CN1CCN(Cc2ccc(NC(=O)NCc3ccc(Cl)cc3)cc2)CC1 [Compound 36, {[(4-chlorophenyl)methyl]amino}-N-(4-{[4-(2-hydroxy-2-methylpropyl)piperazinyl]methyl}phenyl)carboxamide]?
Answer: AC1.4 (the concentration of compounds that generates 40% higher activity over basal) (human NAMPT; [2]): 0.15 µM; EC50 (human NAMPT; [1]): 3.1 µM; AC0.3 (endogenous NAMPT; [3]): 0.15 µM; AC0.3 designation (endogenous NAMPT; [3]): A (AC0.3 values that are less than 0.5 μM); EC50 (endogenous NAMPT; doxorubicin): 0.16 µM

Question: Which “AC1.4 (the concentration of compounds that generates 40% higher activity over basal)” value (human NAMPT; [2]) does the source give for COc1ccc(CNC(=O)Nc2ccc(CN3CCN(CC(C)(C)O)CC3)cc2)cc1 [Compound 242, 1-(4-((4-(2-hydroxy-2-methylpropyl)piperazin-1-yl)methyl)phenyl)-3-(4-methoxybenzyl)urea] here?
Answer: Its value is 0.42 µM.

Question: What about the EC50 (human NAMPT; [1]) of the same compound?
Answer: Its EC50 is 10.6 µM.

Question: And the AC0.3 (endogenous NAMPT; [3])?
Answer: The AC0.3 was 0.86 µM.

Question: What about the EC50 (endogenous NAMPT; doxorubicin) of the same compound?
Answer: The EC50 was 0.79 µM.

Question: How did the “AC1.4 Human” value (human NAMPT; recombinant human NAMPT, NMN fluorescence, 60 min, class symbols) turn out when C[C@H](NCc1ccccc1)c1ccc(NC(=O)NCc2ccc(Cl)cc2)cc1 [Compound 40, [(4-{(1S)-1-[benzylamino]ethyl}phenyl)amino]-N-[(4-chlorophenyl)methyl]carboxamide] was run?
Answer: The value was “A (AC1.4 values that are less than 0.5 μM)”.

Question: What about the AC0.3 (endogenous NAMPT; doxorubicin, class symbols) of the same compound?
Answer: The AC0.3 was “C (AC0.3 values that are greater than 2.5 μM)”.
